Measured values from publication PMC9022420 (Scientific Reports, 2022).

Legend:
[1] = UV-Vis absorption and emission spectra of flavins in DMSO; assay type: physicochemical; conditions: measured in DMSO
[2] = Fluorescence quantum yield determination; assay type: physicochemical; conditions: in DMSO; for φF fluorescence quantum yield: calculated using riboflavin as the reference
Description: 4 Fluorescence Quantum Yield Calculations
The fluorescence quantum yields (ФF) for F1-4 were determined by preparing a series of dilutions in DMSO ranging
in absorbance values from 0.02 to 0.10 and excited at their respective absorbance maxima (see Table S1).3 The
emission peak was then integrated and plotted against the absorbance value (see Figure S1). Riboflavin (from
according to equation (1):
Φ!;#$%&’( = Φ!;)(* $ !"#$%&% $ !"#$%&) % (1)
Where Slope = gradient from the plot of integrated emission peak vs. absorption value and η = refractive index
Flavin ε (M-1cm-1) λex (nm) λem (nm)
Figure S2: Plot of integrated emission peak against absorbance value of flavins F1-4 and reference compound

[3] = test system: pDNA (pUC18); experiment: pDNA photocleavage, agarose gel electrophoresis; assay type: biochemical; conditions: 10 µM flavin, 15 min white LED, PBS 0.1% DMSO
Description: A 20 µL aliquot was taken after 15 min of white LED irradiation (1 × 10^5 lx). Prior to loading, 2 µL of 6X Orange-G loading dye in glycerol were added to the aliquot and mixed vigorously. The gel was electrophoresed at 80 V for 35 min with 1% agarose gels in 1X Tris–acetate-EDTA (TAE) buffer. Gels were then imaged in a Syngene G:BOX Gel Documentation System and band % quantification was performed using ImageJ Gel Analyzer.

[4] = test system: WI-38 cells; experiment: Light-induced toxicity towards WI-38 cells (MTS); assay type: cell-based, human; conditions: 10 μM flavin, 15 min irradiation 1 × 10^5 lx
Description: An adapted method reported by Maisch et al. was used to conduct phototoxicity studies on human lung fibroblasts, WI-38[28]. Cells were seeded into 96-well plates containing 10,000 cells/well in 100 µL complete growth medium and cultured for 24 h at 37 °C and 5% CO2. […] The resulting mixtures were then incubated in the dark for 5 min and then either illuminated with 1 × 10^5 lx for 5, 10 or 15 min, or incubated further in the dark for 15 min (dark control). After irradiation, the flavin solutions were removed and 100 μL of DMEM with 10% FBS and without phenol red was added to each well and incubated over night at 37 °C and 5% CO2. Subsequently, 20 µL of MTS reagent was added into each well and incubated at 37 °C and 5% CO2 for 1–4 h and the absorbance of each well was measured at 490 nm using a plate reader. Control measurements included negative control untreated cells with light and in the dark containing 0.1% DMSO and cells treated with flavins for 15 min in the dark. All experiments were conducted in biological triplicates. The percentage cell viability was calculated according to Eq. (1).

Row | SMILES | λ1 (S0 → S1 absorption band) [1] [nm] | λ2 (S0 → S2 absorption band) [1] [nm] | λem (emission wavelength) [1] [nm] | ФF fluorescence quantum yield [2] [%] | φF fluorescence quantum yield [2] | % NC (nicked coiled pDNA after photocleavage) [3] [%] | reduction in cell viability (light-induced toxicity) [4]
1 | CCCCCCCCn1c(=O)nc2n(CCNC(=N)N)c3cc(Br)c(Br)cc3nc-2c1=O [Flavin F4] | 444 | 340 | 513 | < 2 | 0.011 ± 0.010 | 21 | ~ 20%
2 | CCCCCCCCn1c(=O)nc2n(CCNC(=N)N)c3cc(C)c(C)cc3nc-2c1=O [Flavin F2] | 446 | 350 | 512 | 14 | 0.141 ± 0.010 | 39 | ~ 75%
3 | CCCCCCCCn1c(=O)nc2n(CCN)c3cc(Br)c(Br)cc3nc-2c1=O [Flavin F3] | 443 | 336 | 508 | < 2 | 0.009 ± 0.013 | – | no decrease in cell viability
4 | CCCCCCCCn1c(=O)nc2n(CCN)c3cc(C)c(C)cc3nc-2c1=O [Flavin F1] | 444 | 349 | 507 | 13 | 0.129 ± 0.012 | – | no decrease in cell viability
